Source: PMC10442743 (Dalton Transactions (Cambridge, England : 2003), 2023)
Read-outs that look alike come from different tables or passages of the source.

Tests used:
MCF-7 = assay: MTT cytotoxicity assay, MCF-7 cells; assay type: cell-based, human
Description: (§1) The cytotoxicity of 1–11CA was assessed against human breast cancer MCF-7 and MDA-MB-231 cells, and non-tumorigenic adherent mouse fibroblast connective tissue L929 cells using the MTT assay after 24 and 72 h (Tables S5 ^† and Table 1, respectively).
(§2) Then, necessary dilutions were made using the supplement DMEM, to prepare the range of tested concentrations. Since DMSO was used to solubilize the compounds, a supplemented DMEM + DMSO (at the same percentage as in the sequential dilutions) was considered as a control in the 3-[4,5-dimetylthiazole-2-yl]-2,5-diphenyltetrazolium bromide (MTT) assay.
(§3) L929, MCF-7, and MDA-MB-231 cell lines were cultured in DMEM supplemented with 10% (v/v) FBS and 1% (v/v) of penicillin–streptomycin. The cells were incubated in a humidified chamber at 37 °C under saturated air with a 5% CO2 atmosphere. Cells were passed at 80%–90% of confluency with 0.25% (w/v) trypsin and the cell culture media was changed every 2–3 days.
(§4) The compounds were tested on two breast cancer cell lines (MCF-7 and MDA-MB-231) and L929 fibroblasts, used as a reference for the safety evaluation according to ISO 10993-1:2009 “Biological evaluation of medical devices”. Cells were seeded on sterile 96-well plates at 50 000 cells per well (L929) and 20 000 cells per well (MCF-7 and MDA-MB-231) in supplemented DMEM medium (100 μL) for 24 h. The culture medium was removed and new media containing different concentrations of the compounds (0–1000 μM) was added to the wells (100 μL). Control cells were incubated under the same conditions in the absence of a compound. Cells were incubated for 24 and 72 h under the same conditions described above. Then, the medium was removed, and the cells were incubated with 3-(4,5-dimethylthiazol-2-yl)-2,5-diphenyltetrazolium bromide (MTT; 0.5 mg mL^−1) for 3 h. After this time, the medium was removed, and formazan crystals were solubilized with DMSO (100 μL per well). The absorbance in each well was read on a SynergyTM HT Multimode microplate reader (BioTek Instruments; Winooski, VT, USA) at 570 and 630 nm (for background correction), and the cell viability was calculated according to the following equation (eqn (1)):1 [drawing 3] where OD570(sample) and OD630(sample) are the optical densities of the solutions containing the compounds and OD570(control) and OD630(control) are controls without compound.
(§5) Each apoptosis value determination represents the mean ± standard deviation of 2 independent assays. The IC50 values were obtained using GraphPad Prism software and ANOVA (analysis of variance) was performed to determine the statistical difference between the IC50 values of different cell lines.

L929 = assay: MTT cytotoxicity assay, L929 fibroblasts (and selectivity index); assay type: cell-based, mouse; conditions: for SI (selectivity index): IC50 L929 divided by average IC50 of the breast cancer cell lines
Description: as §1, §2, §3, §4, §5

MDA-MB-231 = assay: MTT cytotoxicity assay, MDA-MB-231 cells; assay type: cell-based, human
Description: as §1, §2, §3, §4, §5

[1] = Solubility in water (ICP-MS); conditions: 25 °C, limit of detection = 5 ppt
Description: sonication, the mixtures were stirred at 25 °C for 1 h. The saturated solutions were filtered
to remove any insoluble solids, dissolved in 0.5 mL of MilliQ water, and analyzed using
ICP-MS. Samples were submitted to acidic digestion with 2 mL of concentrated HNO3
min to heat to 100°C and keep at 100°C for 60 min. After the digestion, the sample
volumes were precisely adjusted to 5 mL with MilliQ water. Samples were further diluted
30 times with 2% HNO3 solution and their Ru content was analyzed by ICP-MS using
standard mode on NexIon 350 D ICP-MS instrument (PerkinElmer). Yttrium was added
as an internal standard at a concentration of 2 ppb to all the solution and Ru quantitation
was performed using an external calibration curve with standards in the 0.05-50 ppb

[2] = n-octanol/water partition coefficient (shake-flask, ICP-MS)
Description: The saturated solutions were filtered
(DigiPREP Jr. 15ml, 40 Pos, SCP Science). The digestion program was the following: 15
After the digestion, the sample
Samples were further diluted
range. All measurements were performed in triplicates.
lipophilicity of a compound. This assay was performed following the Shake-flask method
organic and aqueous phase. Aliquots of each phase were taken and analyzed separately
range. The partition coefficient was calculated as P!"=
respectively. All measurements were performed in triplicates.

[3] = Molar conductivity in acetonitrile; assay type: physicochemical; conditions: 1 mM in acetonitrile, 25 °C
Description: The molar conductivity (ΛM, reported as S·cm2·mol–1) of solutions of 11CA in acetonitrile (1 mM) were measured in a Radiometer Copenhagen CDM92 equipped with a conductivity cell CDC641T glass platinum electrode at room temperature (25 °C). The conductivity of the pure solvent was used as standard controls.
Table S3. Solubility in water at 25 °C, n-octanol/water partition coefficient and molar conductivity of the 11CA. * below limit of detection = 5 ppt.

ctDNA = assay: Circular dichroism / induced circular dichroism with calf thymus DNA; conditions: DNA, 24 h, 37 °C
Description: Calf thymus (ct) DNA (Merck®) was used to perform the circular dichroism assay to detect conformational changes in the ctDNA induced by the compounds. CD spectral data was collected on a Chirascan™ V100 (Applied Photophysics) spectropolarimeter equipped with a large area Avalanche photodiodes detector and computer-controlled thermoelectrical cell holder using a 1 cm path length quartz cuvette. CD spectra of ctDNA in the absence and presence of different concentrations of 11Cl were recorded at wavelengths ranging from 320 to 190 nm under constant nitrogen flush at 25 °C. For each CD spectrum, the number of scans was set to 5, and spectral data were collected at 0.1 ms intervals. Additionally, methyl green (MG) and 4′,6-diamidino-2-phenylindole (DAPI), and propidium iodide (PI) were analyzed as minor and major groove binders and as an intercalator, respectively, to help identify the binding mode of 11Cl to DNA. Samples were prepared in 10 mM Tris-HCl buffer (pH 7.6) with 1 mM EDTA. The concentration of ctDNA was fixed at 100 μM (concerning base pairs) and the ctDNA to 11Cl ratio was varied between 0 and 1. The samples were incubated for 24 h at 37 °C and then analyzed in the CD spectropolarimeter.

[4] = 24 h exposure, MTT, read-out: IC50 (µM) (average ± standard deviation) 24 h MCF-7
[5] = 72 h exposure, MTT, read-out: IC50 (μM) (average ± standard deviation) 72 h MCF-7
[6] = 24 h exposure, MTT, read-out: IC50 (µM) (average ± standard deviation) 24 h L929
[7] = 72 h exposure, MTT, read-out: IC50 (μM) (average ± standard deviation) 72 h L929
[8] = 24 h exposure, MTT, read-out: IC50 (µM) (average ± standard deviation) 24 h MDA-MB-231
[9] = 72 h exposure, MTT, read-out: IC50 (μM) (average ± standard deviation) 72 h MDA-MB-231
[10] = sodium counteranion salts, 24 h, read-out: IC50 in MCF-7 cell line Mean ± SD 24 h
[11] = sodium counteranion salts, 72 h, read-out: IC50 in MCF-7 cell line Mean ± SD 72h
[12] = sodium counteranion salts, 24 h, read-out: IC50 in L929 cell line Mean ± SD 24 h
[13] = sodium counteranion salts, 72 h, read-out: IC50 in L929 cell line Mean ± SD 72h
[14] = sodium counteranion salts, 24 h, read-out: IC50 in MDA-MB-231 cell line Mean ± SD 24 h
[15] = sodium counteranion salts, 72 h, read-out: IC50 in MDA-MB-231 cell line Mean ± SD 72h

SMILES	IC50 (MCF-7; [4])	IC50 (MCF-7; [5])	SI (selectivity index) (L929; 24 h)	IC50 (L929; [6])	SI (selectivity index) (L929; 72 h)	IC50 (L929; [7])	IC50 (MDA-MB-231; [8])	IC50 (MDA-MB-231; [9])	IC50 (MCF-7; [10])	IC50 (MCF-7; [11])	IC50 (L929; [12])	IC50 (L929; [13])	IC50 (MDA-MB-231; [14])	IC50 (MDA-MB-231; [15])	other results
Cc1c(C)c(C)[c-](C)c1C.[Cl][Ru+]([PH]12CN3CN(CN(C3)C1)C2)[PH]12CN3CN(CN(C3)C1)C2 [Compound 2]	403 ± 9 µM	51 ± 6 µM	1.6	537 ± 29 µM	1.1	64 ± 4 µM	286 ± 7 µM	63 ± 3 µM	–	–	–	–	–	–	–
C[NH+](C)Cc1ccccc1.[Cl-].[Cl][Ru]([Cl])[PH]12CN3CN(CN(C3)C1)C2 [Compound 3]	463 ± 19 µM	51 ± 4 µM	1.8	749 ± 45 µM	1.5	84 ± 5 µM	357 ± 7 µM	60 ± 3 µM	–	–	–	–	–	–	–
Cc1ccc(C(C)C)cc1.[Br][Ru]([Br])[PH]12CN3CN(CN(C3)C1)C2 [Compound 6]	376 ± 15 µM	74 ± 7 µM	1.8	670 ± 60 µM	1.2	82 ± 3 µM	388 ± 12 µM	63 ± 5 µM	–	–	–	–	–	–	–
Cc1ccc(C(C)C)cc1.O=C1[O][Ru]([PH]23CN4CN(CN(C4)C2)C3)[O]C1=O [Compound 7]	407 ± 17 µM	62 ± 4 µM	–	570 ± 18 µM	–	104 ± 4 µM	513 ± 16 µM	83 ± 5 µM	–	–	–	–	–	–	–
Cc1ccc(CCC(=O)O)cc1.O=C1[O][Ru]([PH]23CN4CN(CN(C4)C2)C3)[O]C1=O [Compound 8]	213 ± 8 µM	41 ± 5 µM	–	572 ± 33 µM	–	50 ± 3 µM	284 ± 7 µM	50 ± 2 µM	–	–	–	–	–	–	–
Cc1ccccc1.[Cl][Ru]([Cl])[PH](c1ccccc1)(c1ccccc1)c1ccccc1 [Compound 9]	304 ± 19 µM	52 ± 7 µM	2.3	544 ± 12 µM	1.5	70 ± 4 µM	164 ± 2 µM	44 ± 3 µM	–	–	–	–	–	–	Solubility (μM) [1]: 65 ± 8 µM; Solubility (μg/mL) [1]: 34 ± 4 µg/mL
Cc1cccc[c]1[Ru+]([Cl])([PH](c1ccccc1)(c1ccccc1)c1ccccc1)[PH](c1ccccc1)(c1ccccc1)c1ccccc1.F[B-](F)(F)F [Compound 11BF4]	5.4 ± 0.6 µM	0.14 ± 0.01 µM	0.8	3.8 ± 0.4 µM	6.8	1.13 ± 0.05 µM	4.3 ± 0.4 µM	0.19 ± 0.01 µM	–	–	–	–	–	–	LogPow [2]: 1.60 ± 0.20; Conductivity (molar conductivity) [3]: 124 S·cm2/mol; Solubility (μM) [1]: 5 ± 2 µM; Solubility (μg/mL) [1]: 4 ± 1 µg/mL
F[B-](F)(F)F.[Na+] [NaBF4, reference compound]	–	–	–	–	–	–	–	–	> 2000 µM	343 ± 39 µM	923 ± 77 µM	386 ± 49 µM	> 2000 µM	347 ± 19 µM	–
c1ccc([B-](c2ccccc2)(c2ccccc2)c2ccccc2)cc1 [NaBPh4, reference compound]	–	–	–	–	–	–	–	–	217 ± 44 µM	102 ± 14 µM	186 ± 11 µM	55 ± 4 µM	441 ± 61 µM	149 ± 13 µM	–
[Cl-].[Na+] [NaCl, reference compound]	–	–	–	–	–	–	–	–	> 2000 µM	280 ± 33 µM	782 ± 55 µM	274 ± 31 µM	> 2000 µM	398 ± 38 µM	–
O=[N+]([O-])[O-].[Na+] [NaNO3, reference compound]	–	–	–	–	–	–	–	–	> 2000 µM	262 ± 38 µM	> 1000 µM	331 ± 57 µM	> 2000 µM	334 ± 23 µM	–
O=S(=O)([O-])C(F)(F)F.[Na+] [NaOTf, reference compound]	–	–	–	–	–	–	–	–	> 2000 µM	279 ± 30 µM	> 1000 µM	159 ± 20 µM	> 2000 µM	354 ± 27 µM	–
F[P-](F)(F)(F)(F)F.[Na+] [NaPF6, reference compound]	–	–	–	–	–	–	–	–	> 2000 µM	311 ± 27 µM	759 ± 77 µM	297 ± 24 µM	> 1000 µM	329 ± 17 µM	–
[F][Sb-]([F])([F])([F])([F])[F].[Na+] [NaSbF6, reference compound]	–	–	–	–	–	–	–	–	> 1000 µM	234 ± 24 µM	693 ± 53 µM	180 ± 22 µM	689 ± 61 µM	236 ± 13 µM	–
CC[N+](C)(CC)CCC[n+]1c(-c2ccccc2)c2cc(N)ccc2c2ccc(N)cc21.[I-].[I-] [PI, propidium iodide]	–	–	–	–	–	–	–	–	–	–	–	–	–	–	CD band 220 nm (hydrogen bonding), intensity change (ctDNA): Unchanged; CD band 220 nm (hydrogen bonding), wavelength shift (ctDNA): Blue shift; CD band 246 nm (helicity), intensity change (ctDNA): Hyperchromic; CD band 246 nm (helicity), wavelength shift (ctDNA): Unchanged; CD band 268−280 nm (base-pair stacking interactions), intensity change (ctDNA): Hyperchromic; CD band 268−280 nm (base-pair stacking interactions), wavelength shift (ctDNA): Unchanged
